Data from patent US7728003B2, “5-oxo-5,8-dihydro-pyrido-pyrimidines as inhibitors of c-fms kinase” (Janssen Pharmaceutica N.V., priority 2005, dated 2010).
Values belong to the compound of their own block, whether it stands above or below them.

Target: c-fms (Homo sapiens, UniProt P07333)
Test: c-fms autophosphorylation, fluorescence polarization competition immunoassay
Type: biochemical
Settings: 10 nM c-fms, 1 mM ATP; for inhibition at 0.1 µM: test concentration 0.1 μM, read-out: c-fms Autophosphorylation Percent Inhibition, % @ 0.1 μM; for inhibition at 1 µM: test concentration 1 μM, read-out: c-fms Autophosphorylation Percent Inhibition, % @ 1 μM
Procedure: The assay buffer used was 100 mM 4-(2-hydroxyethyl)piperazine 1-ethanesulfonic acid (HEPES), pH 7.5, 1 mM 1,4-dithio-DL-threitol (DTT), 0.01% (v/v) Tween-20. Compounds were diluted in assay buffer containing 4% dimethylsulfoxide (DMSO) just prior to the assay. To each well, 5 μL of compound were added followed by the addition of 3 μL of a mix containing 33 nM c-fms and 16.7 mM MgCl2 (Sigma) in assay buffer. The kinase reaction was initiated by adding 2 μL of 5 mM ATP (Sigma) in assay buffer. The final concentrations in the assay were 10 nM c-fms, 1 mM ATP, 5 mM MgCl2, 2% DMSO. Control reactions were ran in each plate: in positive and negative control wells, assay buffer (made 4% in DMSO) was substituted for the compound; in addition, positive control wells received 1.2 μL of 50 mM ethylenediaminetetraaceticacid (EDTA).
The plates were incubated at room temperature for 45 min. At the end of the incubation, the reaction was quenched with 1.2 μL of 50 mM EDTA (EDTA was not added to the positive control wells at this point; see above). Following a 5-min incubation, each well received 10 μL of a 1:1:3 mixture of anti-phosphotyrosine antibody, 10X, PTK green tracer, 10X (vortexed), FP dilution buffer, respectively (all from PanVera, cat. # P2837). The plate was covered, incubated for 30 min at room temperature and the fluorescence polarization was read on the Analyst. The instrument settings were: 485 nm excitation filter; 530 nm emission filter; Z height: middle of well; G factor: 0.93.
The percent inhibition is shown in Table 1 at the indicated test concentration. The IC50 shown in Table 2 are averages of three independent measurements.

Sequence of c-fms (P07333 20-972): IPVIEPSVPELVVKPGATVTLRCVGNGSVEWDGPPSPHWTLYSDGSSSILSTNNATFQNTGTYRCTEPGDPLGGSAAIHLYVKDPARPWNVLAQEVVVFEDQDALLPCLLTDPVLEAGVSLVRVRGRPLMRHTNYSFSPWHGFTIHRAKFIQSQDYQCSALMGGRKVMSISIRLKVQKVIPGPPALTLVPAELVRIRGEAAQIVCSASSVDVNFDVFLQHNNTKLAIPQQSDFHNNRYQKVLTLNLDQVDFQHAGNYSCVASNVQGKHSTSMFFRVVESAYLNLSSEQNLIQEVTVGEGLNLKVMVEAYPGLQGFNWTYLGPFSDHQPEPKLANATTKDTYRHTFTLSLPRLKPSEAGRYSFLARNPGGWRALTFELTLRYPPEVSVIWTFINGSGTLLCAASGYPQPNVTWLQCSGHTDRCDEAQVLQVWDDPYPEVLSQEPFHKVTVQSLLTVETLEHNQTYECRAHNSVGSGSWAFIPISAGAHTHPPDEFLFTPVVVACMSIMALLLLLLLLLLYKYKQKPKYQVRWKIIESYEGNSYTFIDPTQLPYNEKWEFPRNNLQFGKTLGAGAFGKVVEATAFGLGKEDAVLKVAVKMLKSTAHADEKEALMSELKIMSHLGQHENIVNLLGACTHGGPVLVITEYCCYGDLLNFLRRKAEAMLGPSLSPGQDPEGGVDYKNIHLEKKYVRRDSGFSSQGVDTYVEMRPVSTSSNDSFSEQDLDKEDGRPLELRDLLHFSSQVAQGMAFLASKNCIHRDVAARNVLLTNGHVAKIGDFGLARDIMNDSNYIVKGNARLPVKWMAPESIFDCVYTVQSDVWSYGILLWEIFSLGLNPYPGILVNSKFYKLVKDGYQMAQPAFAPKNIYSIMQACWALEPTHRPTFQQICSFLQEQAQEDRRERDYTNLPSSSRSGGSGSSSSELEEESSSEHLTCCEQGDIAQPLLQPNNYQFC

inhibition at 0.1 µM: 22%
inhibition at 1 µM: 45%
SMILES: CONC(=O)c1cn(C2CCCCC2)c2nc(NCCCn3ccnc3)ncc2c1=O [Cpd 41, 8-Cyclohexyl-2-(3-imidazol-1-yl-propylamino)-5-oxo-5,8-dihydro-pyrido[2,3-d]pyrimidine-6-carboxylic acid methoxy-amide]

inhibition at 0.1 µM: 17%
inhibition at 1 µM: 40%
SMILES: CONC(=O)c1cn(C2CCCCC2)c2nc(NCCCN(C)C)ncc2c1=O [Cpd 42, 8-Cyclohexyl-2-(3-dimethylamino-propylamino)-5-oxo-5,8-dihydro-pyrido[2,3-d]pyrimidine-6-carboxylic acid methoxy-amide]

inhibition at 0.1 µM: 26%
inhibition at 1 µM: 62%
SMILES: COCCCNc1ncc2c(=O)c(C(=O)NOC)cn(C3CCCCC3)c2n1 [Cpd 44, 8-Cyclohexyl-2-(3-methoxy-propylamino)-5-oxo-5,8-dihydro-pyrido[2,3-d]pyrimidine-6-carboxylic acid methoxy-amide]

inhibition at 0.1 µM: 31%
inhibition at 1 µM: 57%
SMILES: COCCNc1ncc2c(=O)c(C(=O)NOC)cn(C3CCCCC3)c2n1 [Cpd 47, 8-Cyclohexyl-2-(2-methoxy-ethylamino)-5-oxo-5,8-dihydro-pyrido[2,3-d]pyrimidine-6-carboxylic acid methoxy-amide]

inhibition at 0.1 µM: 0%
inhibition at 1 µM: 18%
SMILES: CONC(=O)c1cn(C2CCCCC2)c2nc(NCCN3CCCC3)ncc2c1=O [Cpd 48, 8-Cyclohexyl-5-oxo-2-(2-pyrrolidin-1-yl-ethylamino)-5,8-dihydro-pyrido[2,3-d]pyrimidine-6-carboxylic acid methoxy-amide]

inhibition at 0.1 µM: 38%
inhibition at 1 µM: 68%
SMILES: CONC(=O)c1cn(C2CCCCC2)c2nc(NCCc3ccc(OC)cc3)ncc2c1=O [Cpd 49, 8-Cyclohexyl-2-[2-(4-methoxy-phenyl)-ethylamino]-5-oxo-5,8-dihydro-pyrido[2,3-d]pyrimidine-6-carboxylic acid methoxy-amide]

inhibition at 0.1 µM: 23%
inhibition at 1 µM: 53%
SMILES: CONC(=O)c1cn(C2CCCCC2)c2nc(NCc3cc(OC)cc(OC)c3)ncc2c1=O [Cpd 52, 8-Cyclohexyl-2-(3,5-dimethoxy-benzylamino)-5-oxo-5,8-dihydro-pyrido[2,3-d]pyrimidine-6-carboxylic acid methoxy-amide]

inhibition at 0.1 µM: 16%
inhibition at 1 µM: 20%
SMILES: CNC(=O)c1cn(C2CCCCC2)c2nc(NCCOC)ncc2c1=O [Cpd 57, 8-Cyclohexyl-2-(2-methoxy-ethylamino)-5-oxo-5,8-dihydro-pyrido[2,3-d]pyrimidine-6-carboxylic acid methylamide]

inhibition at 0.1 µM: 13%
inhibition at 1 µM: 26%
SMILES: CNC(=O)c1cn(C2CCCCC2)c2nc(NCCc3ccc(OC)cc3)ncc2c1=O [Cpd 58, 8-Cyclohexyl-2-[2-(4-methoxy-phenyl)-ethylamino]-5-oxo-5,8-dihydro-pyrido[2,3-d]pyrimidine-6-carboxylic acid methylamide]

inhibition at 0.1 µM: 3%
inhibition at 1 µM: 21%
SMILES: CNC(=O)c1cn(C2CCCCC2)c2nc(NCc3cc(OC)cc(OC)c3)ncc2c1=O [Cpd 61, 8-Cyclohexyl-2-(3,5-dimethoxy-benzylamino)-5-oxo-5,8-dihydro-pyrido[2,3-d]pyrimidine-6-carboxylic acid methylamide]

Second part, the compound before the results:

SMILES: CONC(=O)c1cn(C2CCCCC2)c2nc(NCCCN3CCOCC3)ncc2c1=O [Cpd 43, 8-Cyclohexyl-2-(3-morpholin-4-yl-propylamino)-5-oxo-5,8-dihydro-pyrido[2,3-d]pyrimidine-6-carboxylic acid methoxy-amide]
inhibition at 0.1 µM: 32%
inhibition at 1 µM: 60%

SMILES: CONC(=O)c1cn(C2CCCCC2)c2nc(NCCCN3CCN(C)CC3)ncc2c1=O [Cpd 45, 8-Cyclohexyl-2-[3-(4-methyl-piperazin-1-yl)-propylamino]-5-oxo-5,8-dihydro-pyrido[2,3-d]pyrimidine-6-carboxylic acid methoxy-amide]
inhibition at 0.1 µM: 43%
inhibition at 1 µM: 67%

SMILES: CONC(=O)c1cn(C2CCCCC2)c2nc(NCCCN3CCCC3)ncc2c1=O [Cpd 46, 8-Cyclohexyl-5-oxo-2-(3-pyrrolidin-1-yl-propylamino)-5,8-dihydro-pyrido[2,3-d]pyrimidine-6-carboxylic acid methoxy-amide]
inhibition at 0.1 µM: 28%
inhibition at 1 µM: 51%

SMILES: CONC(=O)c1cn(C2CCCCC2)c2nc(NCCN3CCCCC3)ncc2c1=O [Cpd 50, 8-Cyclohexyl-5-oxo-2-(2-piperidin-1-yl-ethylamino)-5,8-dihydro-pyrido[2,3-d]pyrimidine-6-carboxylic acid methoxy-amide]
inhibition at 0.1 µM: 3%
inhibition at 1 µM: 20%

SMILES: CONC(=O)c1cn(C2CCCCC2)c2nc(NCCN3CCOCC3)ncc2c1=O [Cpd 51, 8-Cyclohexyl-2-(2-morpholin-4-yl-ethylamino)-5-oxo-5,8-dihydro-pyrido[2,3-d]pyrimidine-6-carboxylic acid methoxy-amide]
inhibition at 0.1 µM: 17%
inhibition at 1 µM: 44%

SMILES: CNC(=O)c1cn(C2CCCCC2)c2nc(NCCCn3ccnc3)ncc2c1=O [Cpd 53, 8-Cyclohexyl-2-(3-imidazol-1-yl-propylamino)-5-oxo-5,8-dihydro-pyrido[2,3-d]pyrimidine-6-carboxylic acid methylamide]
inhibition at 0.1 µM: 10%
inhibition at 1 µM: 21%

SMILES: CNC(=O)c1cn(C2CCCCC2)c2nc(NCCCN(C)C)ncc2c1=O [Cpd 54, 8-Cyclohexyl-2-(3-dimethylamino-propylamino)-5-oxo-5,8-dihydro-pyrido[2,3-d]pyrimidine-6-carboxylic acid methylamide]
inhibition at 0.1 µM: 6%
inhibition at 1 µM: 26%

SMILES: CNC(=O)c1cn(C2CCCCC2)c2nc(NCCCN3CCOCC3)ncc2c1=O [Cpd 55, 8-Cyclohexyl-2-(3-morpholin-4-yl-propylamino)-5-oxo-5,8-dihydro-pyrido[2,3-d]pyrimidine-6-carboxylic acid methylamide]
inhibition at 0.1 µM: 13%
inhibition at 1 µM: 23%

SMILES: CNC(=O)c1cn(C2CCCCC2)c2nc(NCCCOC)ncc2c1=O [Cpd 56, 8-Cyclohexyl-2-(3-methoxy-propylamino)-5-oxo-5,8-dihydro-pyrido[2,3-d]pyrimidine-6-carboxylic acid methylamide]
inhibition at 0.1 µM: 6%
inhibition at 1 µM: 23%

SMILES: CNC(=O)c1cn(C2CCCCC2)c2nc(NCCN3CCCCC3)ncc2c1=O [Cpd 59, 8-Cyclohexyl-5-oxo-2-(2-piperidin-1-yl-ethylamino)-5,8-dihydro-pyrido[2,3-d]pyrimidine-6-carboxylic acid methylamide]
inhibition at 0.1 µM: 5%
inhibition at 1 µM: 11%

SMILES: CNC(=O)c1cn(C2CCCCC2)c2nc(NCCN3CCOCC3)ncc2c1=O [Cpd 60, 8-Cyclohexyl-2-(2-morpholin-4-yl-ethylamino)-5-oxo-5,8-dihydro-pyrido[2,3-d]pyrimidine-6-carboxylic acid methylamide]
inhibition at 0.1 µM: 12%
inhibition at 1 µM: 18%
